Assay results as given in the CheMixHub viscosity set.

Test: xn = mol fraction of the nth substance listed

Clc1ccccc1 + C1CCCCC1
Settings	viscosity [mPa·s]
293.65 K, 101.33 kPa, x2 = 0.497	0.834
293.85 K, 101.33 kPa, x2 = 0.7	0.8665
294.25 K, 101.33 kPa, x2 = 0.3	0.8152
294.55 K, 101.33 kPa, x2 = 0.4	0.819
294.75 K, 101.33 kPa, x2 = 0.2	0.8056
294.85 K, 101.33 kPa, x2 = 0.8	0.889
295.15 K, 101.33 kPa, x2 = 0.6	0.8189
297.15 K, 101.33 kPa, x2 = 0.1	0.7894
303.05 K, 101.33 kPa, x2 = 0.3	0.738
303.25 K, 101.33 kPa, x2 = 0.7	0.7564
303.25 K, 101.33 kPa, x2 = 0.8	0.7829
303.45 K, 101.33 kPa, x2 = 0.1	0.731
303.75 K, 101.33 kPa, x2 = 0.2	0.7191
303.85 K, 101.33 kPa, x2 = 0.4	0.7276
303.85 K, 101.33 kPa, x2 = 0.6	0.7319
303.95 K, 101.33 kPa, x2 = 0.497	0.7249
308.15 K, 101 kPa, x2 = 0.0465	0.6656
308.15 K, 101 kPa, x2 = 0.1818	0.6489
308.15 K, 101 kPa, x2 = 0.2516	0.6418
308.15 K, 101 kPa, x2 = 0.3629	0.6379
308.15 K, 101 kPa, x2 = 0.4845	0.6421
308.15 K, 101 kPa, x2 = 0.5788	0.6489
308.15 K, 101 kPa, x2 = 0.6926	0.6668
308.15 K, 101 kPa, x2 = 0.807	0.6991
308.15 K, 101 kPa, x2 = 0.9588	0.7386
312.65 K, 101.33 kPa, x2 = 0.1	0.6777
312.75 K, 101.33 kPa, x2 = 0.497	0.6502
312.75 K, 101.33 kPa, x2 = 0.7	0.666
312.95 K, 101.33 kPa, x2 = 0.4	0.6505
312.95 K, 101.33 kPa, x2 = 0.6	0.5637
313.15 K, 101 kPa, x2 = 0.0465	0.6298
313.15 K, 101 kPa, x2 = 0.1818	0.6122
313.15 K, 101 kPa, x2 = 0.2516	0.6045
313.15 K, 101 kPa, x2 = 0.3629	0.5973
313.15 K, 101 kPa, x2 = 0.4845	0.601
313.15 K, 101 kPa, x2 = 0.5788	0.6074
313.15 K, 101 kPa, x2 = 0.6926	0.6254
313.15 K, 101 kPa, x2 = 0.807	0.6532
313.15 K, 101 kPa, x2 = 0.9588	0.689
313.25 K, 101.33 kPa, x2 = 0.2	0.6448
313.45 K, 101.33 kPa, x2 = 0.3	0.6518
313.75 K, 101.33 kPa, x2 = 0.8	0.6758
322.55 K, 101.33 kPa, x2 = 0.497	0.5847
322.55 K, 101.33 kPa, x2 = 0.6	0.585
322.75 K, 101.33 kPa, x2 = 0.3	0.591
322.75 K, 101.33 kPa, x2 = 0.4	0.5803
322.85 K, 101.33 kPa, x2 = 0.7	0.5926
322.85 K, 101.33 kPa, x2 = 0.8	0.6059

Clc1ccccc1 + CC#N
viscosity [mPa·s], 101 kPa
Settings	298.15 K	303.15 K	308.15 K
x1 = 0.1038	–	–	0.352
x1 = 0.2009	–	–	0.3871
x1 = 0.3059	–	–	0.4245
x1 = 0.3949	–	–	0.4591
x1 = 0.4943	–	–	0.4944
x1 = 0.5946	–	–	0.5309
x1 = 0.6984	–	–	0.5671
x1 = 0.7956	–	–	0.6032
x1 = 0.8961	–	–	0.6352
x2 = 0.082	0.728	0.65	–
x2 = 0.1809	0.681	0.609	–
x2 = 0.267	0.642	0.577	–
x2 = 0.3853	0.587	0.529	–
x2 = 0.506	0.539	0.484	–
x2 = 0.5957	0.501	0.459	–
x2 = 0.6925	0.46	0.418	–
x2 = 0.8175	0.406	0.373	–
x2 = 0.9171	0.367	0.337	–

C=CC(=O)OCC + CCCCCCCCCCO
viscosity [mPa·s], 101.3 kPa
Settings	x1 = 0.0861	x1 = 0.235	x1 = 0.302	x1 = 0.4261	x1 = 0.5383	x1 = 0.7248	x1 = 0.8036	x1 = 0.8763	x1 = 0.9389	x1 = 0.9688
298.15 K	8.526	5.017	3.969	2.618	1.895	1.076	0.86	0.702	0.602	0.563
308.15 K	6.006	3.812	3.085	2.104	1.515	0.898	0.73	–	0.525	0.497

C=CC(=O)OCC + CCOCCOCCO
viscosity [mPa·s], 101 kPa
Settings	293.15 K	298.15 K	303.15 K	308.15 K	313.15 K	318.15 K
x2 = 0.0707	0.666	0.624	0.587	0.551	0.521	0.499
x2 = 0.1417	0.76	0.708	0.662	0.62	0.582	0.547
x2 = 0.2167	0.879	0.813	0.756	0.704	0.66	0.619
x2 = 0.2803	0.997	0.918	0.85	0.79	0.735	0.686
x2 = 0.3626	1.192	1.075	0.989	0.914	0.847	0.788
x2 = 0.4228	1.335	1.227	1.113	1.024	0.946	0.877
x2 = 0.5004	1.571	1.438	1.305	1.175	1.079	0.995
x2 = 0.5659	1.812	1.628	1.477	1.329	1.214	1.112
x2 = 0.6497	2.136	1.927	1.737	1.563	1.411	1.287
x2 = 0.7196	2.467	2.207	1.956	1.759	1.599	1.459
x2 = 0.791	2.845	2.512	2.233	1.998	1.797	1.627
x2 = 0.869	3.342	2.93	2.558	2.302	2.046	1.857
x2 = 0.9299	3.752	3.274	2.84	2.552	2.258	2.044
